# Source: ChEMBL document CHEMBL1201862, “PubChem BioAssay data set” (2004)
# Active and inactive are the calls of the source.
# How the values were obtained:
# [1] = THP-1 cell cytotoxicity, dose response, cytotoxicity control for Vif-APOBEC3G degradation inhibitor project, THP-1 cells (AID 1117359); type: functional; conditions: Human immunodeficiency virus 1, THP-1
# [2] = inhibitors of Vif binding to APOBEC3G peptide, primary screen, biochemical, TR-FRET, GST-Vif 1-94, biotin-A3G peptide, dose response retest (AID 1117319); type: functional;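 note: TR-FRET signal of purified GST-Vif binding a biotinylated A3G peptide; inhibitors lower the FRET signal by blocking Vif and A3G binding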
# [3] = inhibitors of intracellular T. cruzi replication, confirmation, NIH3T3 host cells, beta-gal luminescence (AID 2044); type: functional, cell-based;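 note: intracellular parasites grown in NIH/3T3 mouse fibroblasts as host cells; luminescent beta-galactosidase reporter signal from transgenic T. cruzi replicating inside host cells; inhibitors lower the luminescence signal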
# [4] = microbe, parasite or virus in culture; type: functional; conditions: Mycobacterium tuberculosis
# [5] = cytotoxicity toward NIH3T3 fibroblasts, dose response, counter-screen, cell-based, ATP luminescence, mouse fibroblasts (AID 2010); type: functional;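 note: cells exposed to compound for about 90 hours before reading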
# [6] = biological target: T1, Short transient receptor potential channel 4 (Mus musculus, UniProt Q9QUQ5); assay: mouse TRPC4 channel inhibitors, dose response, cell-based, HEK293 TRPC4/mu-opioid, Fluo-4 calcium (AID 434942); type: functional;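 note: potency of inhibitors blocking the TRPC4 calcium response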
# T1 sequence (Q9QUQ5 whole entry): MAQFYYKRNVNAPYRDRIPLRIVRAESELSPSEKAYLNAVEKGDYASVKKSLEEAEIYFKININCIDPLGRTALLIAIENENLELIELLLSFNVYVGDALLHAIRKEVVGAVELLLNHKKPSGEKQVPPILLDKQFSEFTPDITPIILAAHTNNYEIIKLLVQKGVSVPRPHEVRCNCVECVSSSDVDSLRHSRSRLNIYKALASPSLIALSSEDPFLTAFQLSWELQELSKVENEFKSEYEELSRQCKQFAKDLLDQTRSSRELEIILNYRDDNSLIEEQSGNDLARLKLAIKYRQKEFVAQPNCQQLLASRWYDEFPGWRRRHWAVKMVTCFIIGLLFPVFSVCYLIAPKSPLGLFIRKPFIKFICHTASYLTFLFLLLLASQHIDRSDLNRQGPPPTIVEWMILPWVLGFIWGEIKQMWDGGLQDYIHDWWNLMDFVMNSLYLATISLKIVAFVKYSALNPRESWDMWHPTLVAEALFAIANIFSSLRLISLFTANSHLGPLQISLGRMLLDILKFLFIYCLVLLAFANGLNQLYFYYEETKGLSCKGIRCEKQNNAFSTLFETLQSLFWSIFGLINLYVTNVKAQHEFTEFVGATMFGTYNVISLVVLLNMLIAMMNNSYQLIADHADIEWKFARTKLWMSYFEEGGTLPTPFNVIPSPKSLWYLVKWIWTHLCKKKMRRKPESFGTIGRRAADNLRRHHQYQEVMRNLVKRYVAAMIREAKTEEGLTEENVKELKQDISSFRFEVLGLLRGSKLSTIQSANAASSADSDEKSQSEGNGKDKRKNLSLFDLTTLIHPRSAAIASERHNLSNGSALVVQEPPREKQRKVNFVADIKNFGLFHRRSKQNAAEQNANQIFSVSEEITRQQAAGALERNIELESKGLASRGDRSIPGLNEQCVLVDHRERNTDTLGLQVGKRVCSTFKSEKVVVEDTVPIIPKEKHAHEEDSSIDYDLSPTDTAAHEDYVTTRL
# [7] = biological target: T2, Acyl-homoserine lactone acylase PvdQ (Pseudomonas aeruginosa (strain LESB58), UniProt Q9I194); assay: P. aeruginosa PvdQ acylase inhibitors, dose response, biochemical, fluorescence, plate reader and imaging, cherry-picks (AID 493231)
# T2 sequence (Q9I194 whole entry): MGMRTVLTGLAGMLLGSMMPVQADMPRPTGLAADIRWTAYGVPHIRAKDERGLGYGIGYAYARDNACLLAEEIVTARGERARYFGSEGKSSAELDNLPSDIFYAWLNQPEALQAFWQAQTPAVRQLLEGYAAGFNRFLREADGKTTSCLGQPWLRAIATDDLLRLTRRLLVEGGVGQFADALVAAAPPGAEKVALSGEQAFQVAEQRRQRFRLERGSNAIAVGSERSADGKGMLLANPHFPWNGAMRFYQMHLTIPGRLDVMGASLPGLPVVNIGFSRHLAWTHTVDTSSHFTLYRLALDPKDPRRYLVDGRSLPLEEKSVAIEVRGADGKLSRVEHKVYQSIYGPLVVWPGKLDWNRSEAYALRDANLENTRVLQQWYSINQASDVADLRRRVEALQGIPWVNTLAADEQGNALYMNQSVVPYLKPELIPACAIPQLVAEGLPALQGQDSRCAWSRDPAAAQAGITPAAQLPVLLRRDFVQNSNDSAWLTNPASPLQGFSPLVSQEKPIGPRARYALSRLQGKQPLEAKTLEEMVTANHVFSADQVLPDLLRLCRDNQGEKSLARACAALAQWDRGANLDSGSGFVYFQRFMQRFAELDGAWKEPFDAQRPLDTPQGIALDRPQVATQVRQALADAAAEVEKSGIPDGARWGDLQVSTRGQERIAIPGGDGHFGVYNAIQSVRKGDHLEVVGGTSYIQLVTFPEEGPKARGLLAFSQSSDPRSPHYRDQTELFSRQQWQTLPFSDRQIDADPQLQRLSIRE
# [8] = biological target: T3, Heat shock factor protein 1 (Mus musculus, UniProt P38532); assay: inhibition of MG132-induced HSE-luciferase signal, confirmation, cell-based, NIH3T3, luminescence, dose retest (AID 2382); type: functional;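 note: NIH3T3 fibroblasts with HSF1-driven luciferase reporter stressed by proteasome inhibitor MG132; luminescence from HSF1-driven luciferase expression after 8 hours of MG132 stress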
# T3 sequence (P38532 whole entry): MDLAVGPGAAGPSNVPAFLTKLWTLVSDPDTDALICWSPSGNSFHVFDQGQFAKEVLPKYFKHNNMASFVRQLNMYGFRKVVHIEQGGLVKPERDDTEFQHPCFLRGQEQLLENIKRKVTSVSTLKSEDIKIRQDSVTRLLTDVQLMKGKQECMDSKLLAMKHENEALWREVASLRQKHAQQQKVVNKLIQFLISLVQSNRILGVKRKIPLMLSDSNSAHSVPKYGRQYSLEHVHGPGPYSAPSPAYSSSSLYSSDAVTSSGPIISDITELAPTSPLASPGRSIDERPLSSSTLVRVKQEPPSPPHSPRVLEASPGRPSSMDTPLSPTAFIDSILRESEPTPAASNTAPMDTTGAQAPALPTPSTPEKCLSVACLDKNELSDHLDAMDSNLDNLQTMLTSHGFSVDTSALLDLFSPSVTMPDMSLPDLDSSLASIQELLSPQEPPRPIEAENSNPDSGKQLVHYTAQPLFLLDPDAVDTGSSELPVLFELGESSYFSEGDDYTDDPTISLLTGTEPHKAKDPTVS
# Large T antigen = Large T antigen (Simian virus 40, UniProt P03070); type: functional, Betapolyomavirus macacae;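 note: Confirmatory-stage PubChem screen for compounds that inhibit SV40 T antigen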
# Sequence of Large T antigen (P03070 whole entry): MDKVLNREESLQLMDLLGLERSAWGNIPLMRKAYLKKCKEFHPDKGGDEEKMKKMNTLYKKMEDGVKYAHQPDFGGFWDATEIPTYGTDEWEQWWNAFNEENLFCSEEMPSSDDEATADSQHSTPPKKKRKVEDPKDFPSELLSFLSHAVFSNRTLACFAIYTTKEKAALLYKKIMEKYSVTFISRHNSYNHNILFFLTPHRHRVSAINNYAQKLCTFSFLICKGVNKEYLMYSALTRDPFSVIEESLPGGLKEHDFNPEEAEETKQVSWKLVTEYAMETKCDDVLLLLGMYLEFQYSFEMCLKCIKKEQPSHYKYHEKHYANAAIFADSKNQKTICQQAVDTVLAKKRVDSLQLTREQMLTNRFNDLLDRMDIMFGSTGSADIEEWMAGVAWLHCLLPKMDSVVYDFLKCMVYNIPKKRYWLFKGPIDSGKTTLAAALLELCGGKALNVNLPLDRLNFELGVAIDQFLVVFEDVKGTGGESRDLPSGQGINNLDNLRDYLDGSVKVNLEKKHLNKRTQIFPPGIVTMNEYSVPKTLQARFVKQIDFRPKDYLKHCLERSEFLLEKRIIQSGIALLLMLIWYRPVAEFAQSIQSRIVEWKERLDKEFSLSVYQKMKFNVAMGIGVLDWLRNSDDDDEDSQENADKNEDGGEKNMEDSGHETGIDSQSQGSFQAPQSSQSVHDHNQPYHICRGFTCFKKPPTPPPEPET
# [9] = P. falciparum Dd2 growth inhibitors, dose response, SYBR Green, cherry-picked samples (AID 1159567); type: functional, cell-based
# [10] = inhibitors of firefly luciferase expression or activity, dose response, H4 neuroglioma cells, luminescence (AID 1990); type: functional, cell-based
# BJ [11] = assay: cytotoxicity toward BJ-TERT fibroblasts, dose response, cell-based, RAS-independent, luminescence (AID 1933); type: functional; conditions: Homo sapiens
# [12] = Luminescence Cell-Based Dose Response HTS to Identify Inhibitors of 5'UTR Stem-Loop Driven Prion Protein mRNA Translation in H4 Neuroglioblastoma Cells. [Related pubchem assays: 1827 (Project Summary), 1813 (Primary HTS)]; type: functional
# [13] = inhibitors of SNCA 5'UTR-driven reporter translation, confirmation, H4 neuroglioma cells, luminescence (AID 1988); type: functional, cell-based
# BJ [14] = assay: cells; type: functional, cell-based; conditions: Homo sapiens
# BJ [15] = assay: cytotoxicity toward BJ-TERT-LT-ST fibroblasts, dose response, cell-based, RAS-independent, luminescence (AID 1935); type: functional; conditions: Homo sapiens;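 note: BJ fibroblasts immortalized with TERT plus LT and ST oncogenes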
# [16] = cytotoxicity toward DRD oncogenic fibroblasts, dose response, cell-based, non-viral oncogenic, luminescence (AID 1934); type: functional; conditions: Homo sapiens
# [17] = cytotoxicity in HEK-293T cells, dose response, cytotoxicity control for BCR NF-kB inhibitor project, luminescence, B-cell screen hits (AID 489021); type: functional, cell-based;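 note: HEK-293T cells carrying an NF-kB luciferase reporter; cells exposed to compound for about 14 hours before viability readout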
# [18] = THP-1 cell cytotoxicity, dose response, cytotoxicity control for non-replicating M. tuberculosis project (AID 489025); type: functional
# [19] = Vero E6 cell cytotoxicity, dose response, cytotoxicity control for non-replicating M. tuberculosis project, secondary assay (AID 492998); type: functional, VeroE6; conditions: Vero C1008
# cells = type: functional
# Paired box protein Pax-8 = Paired box protein Pax-8 (Homo sapiens, UniProt Q06710); assay: inhibitors of PAX8-driven TPO luciferase reporter, dose response, RMG-I cells, cherry-pick (AID 687027); type: functional, cell-based;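 note: luciferase reporter driven by Pax8 target thyroperoxidase promoter measured by SteadyGlo luminescence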
# Sequence of Paired box protein Pax-8 (Q06710 whole entry): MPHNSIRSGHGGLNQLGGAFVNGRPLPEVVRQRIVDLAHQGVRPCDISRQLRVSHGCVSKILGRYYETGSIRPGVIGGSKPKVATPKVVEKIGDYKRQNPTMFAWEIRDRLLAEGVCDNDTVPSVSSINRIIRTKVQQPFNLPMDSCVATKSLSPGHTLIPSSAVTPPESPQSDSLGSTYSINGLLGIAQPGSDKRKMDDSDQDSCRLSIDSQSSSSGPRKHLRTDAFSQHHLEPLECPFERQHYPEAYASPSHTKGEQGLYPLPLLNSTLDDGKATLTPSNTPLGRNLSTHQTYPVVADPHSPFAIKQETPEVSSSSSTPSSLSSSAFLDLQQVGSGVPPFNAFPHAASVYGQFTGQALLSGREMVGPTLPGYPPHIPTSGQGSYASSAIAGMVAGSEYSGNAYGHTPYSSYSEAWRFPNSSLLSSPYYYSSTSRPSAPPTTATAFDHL
# [20] = NIH:OVCAR-3 ovarian cancer cell cytotoxicity, dose response, PAX8 inhibitor project, plate reader, dry powder samples (AID 743044); type: functional, cell-based
# [21] = cytotoxicity in OVCAR8 ovarian cancer cells, dose response, PAX8 project, cell-based, plate reader, dry powder samples (AID 743197); type: functional; conditions: OVCAR-8
# [22] = Luminescence Cell-Based Dose Retest to Confirm Inhibitors of Cancer Stem Cells. [Related pubchem assays (depositor defined):AID2717, AID2721]; type: functional; conditions: Homo sapiens
# HEK293 = assay: inhibitors of LMP1-driven NF-kB reporter, dose response, cell-based, HEK293, luciferase, cherry-pick (AID 588343); type: functional; conditions: Homo sapiens
compound,measurement,setting,value
COc1ccc(/N=c2\scc(-c3ccc(OC)cc3)n2CCO)cc1,CC50,[1],28.5 µM (active)
same,IC50,[2],> 100 µM (active)
CC(C)(C)c1ccc(C(=O)N2CCN(CCNC(=O)C(=O)NCc3ccc(Cl)cc3)CC2)cc1,EC50,[3],3.43 µM (active)
same,CC50,[4],> 40 µM (active)
same,EC50,[5],> 30 µM (not active)
CN1CCN(c2nc(-c3cccnc3)nc3scc(-c4ccccc4)c23)CC1,EC50,[6],11.9 µM (active)
Cc1ccc2nc(-c3ccncc3)cc(-c3ccccc3)c2c1,CC50,[4],> 40 µM (active)
COc1ccc(-c2[nH]c(-c3ccc(C)cc3)nc2SCC(=O)NCc2ccco2)cc1OC,IC50,[2],> 100 µM (active)
Clc1ccc2scc(CN3CCCCC3)c2c1,AC50,[7],9.4 µM (active)
O=C1COc2ccc(N3C(=O)C=CC3=O)cc2N1,EC50,[8],9.09 µM (active)
same,IC50,Large T antigen,> 100 µM (active)
same,EC50,[6],6.68 µM (active)
O=S(=O)(c1ccccc1)N1CC[C@@H]2[C@H](CO)Nc3ccc(C#CC4CCCCC4)cc3[C@@H]21,AC50,[9],6.42 µM (active)
COc1ccc(S(=O)(=O)Nc2cc3c(C(C)=O)c(C)oc3c3ccccc23)cc1,EC50,[10],2.35 µM (active)
same,EC50,BJ [11],1.59 µM (active)
same,EC50,[12],2.67 µM (active)
same,EC50,[13],0.294 µM (active)
same,EC50,BJ [14],4.49 µM (active)
same,EC50,BJ [15],1.26 µM (active)
same,EC50,[16],1.91 µM (active)
same,IC50,[17],> 80 µM (inactive)
OCCNCc1cc(Br)ccc1OCc1ccc(Cl)cc1Cl,EC50,[6],3.35 µM (active)
CCCOc1ccc(NC(=O)C(=O)NCCCn2ccnc2)cc1,IC50,[17],> 80 µM (inactive)
C[C@H](CO)N1C[C@H](C)[C@H](CN(C)S(=O)(=O)c2ccccc2)Oc2cc(C#Cc3ccncc3)ccc2S1(=O)=O,AC50,[9],6.63 µM (active)
CCCc1ccc(C2=Nn3c(nnc3C(C)C)SC2)cc1,CC50,[4],> 40 µM (active)
O=C1c2ccccc2C(Nc2ccc(F)c(Cl)c2)N1c1ccccn1 (stereo not given),IC50,[2],> 100 µM (active)
Cc1ccc2c(c1C)NC(=O)C2(O)CC(=O)c1ccc2c(c1)OCO2 (stereo not given),IC50,[2],> 100 µM (active)
O=C(c1cnccn1)N1CC(=O)N2[C@@H](CO)[C@@H](c3ccc(C#CCc4ccccc4)cc3)[C@@H]2C1,AC50,[9],15.7 µM (active)
CC(=O)C1=C(C)NC(SCC(=O)c2ccc(F)cc2)=C(C#N)C1c1ccco1 (stereo not given),CC50,[4],39.2 µM (active)
CO[C@@H]1CN(C)C(=O)c2ccc(NC(=O)Nc3cc(Cl)cc(Cl)c3)cc2OC[C@H](C)NC[C@H]1C,AC50,[9],6.54 µM (active)
Cc1nc([N+](=O)[O-])c(Br)n1Cc1ccccc1,CC50,[18],30.1 µM (active)
same,CC50,[19],> 20 µM (active)
same,IC50,cells,9.77 µM (active)
C[C@@H]1CN([C@H](C)CO)C(=O)c2cc(NC(=O)Nc3ccc(F)cc3)ccc2O[C@@H](C)CCCCO[C@@H]1CN(C)Cc1ccc(Cl)c(Cl)c1,AC50,Paired box protein Pax-8,8.1 µM (active)
same,AC50,[20],20 µM (active)
same,AC50,[21],38.7 µM (active)
FC(F)(F)c1nnc2ccc(Cl)nn12,CC50,[18],8.62 µM (active)
same,CC50,[19],> 20 µM (active)
same,IC50,cells,1.82 µM (active)
O=S(=O)(c1ccc(Cl)cc1)N1CCC(n2cnc3cc(C(F)(F)F)ccc32)CC1,EC50,[3],2.04 µM (active)
same,CC50,[4],> 40 µM (active)
same,EC50,[5],> 60 µM (not active)
same,AC50,[22],0.552 µM (active)
O=C(CSc1nnnn1-c1ccc2c(c1)CCC2)Nc1ccc2c(c1)OCCO2,CC50,[1],> 40 µM (active)
O=C1NC(=O)N(Cc2ccco2)C(=O)/C1=C/NCc1ccc2c(c1)OCO2,IC50,[2],> 100 µM (active)
O=C1OC(c2ccccc2)c2ccccc21 (stereo not given),AC50,[7],97.9 µM (active)
Cc1nn(C(C)(C)C)c(C)c1/C=N/OC(=O)Nc1ccc(Cl)c(Cl)c1,EC50,[8],< 0.16 µM (active)
same,IC50,[17],> 80 µM (inactive)
same,AC50,HEK293,0.839 µM (active)
CC(C)Oc1ccc(Nc2ncnc3ccccc23)cc1,AC50,[7],16.3 µM (active)
